Earlier results on one compound are cited in patent publication US11207297B2, “Liquid pharmaceutical composition of clonidine” (SYRI LTD, priority 2016, dated 2021).

For the data set the following is noted: after oral administration.

Take `Clc1cccc(Cl)c1N=C1NCCN1` [clonidine, N-(2,6-dichlorophenyl)-4,5-dihydro-1H-imidazol-2-amine]: the “Absorption from the gastrointestinal tract” value is on record as “almost completely absorbed”.
